Experimental data: US11135224B2, “Methods of sensitizing estrogen receptor positive (ER+) breast cancer cells to endocrine therapy” (New York University, priority 2018, dated 2021)

What was measured:
Assay type in all cases: cell-based, human
BR7 (PDX) cells = experiment: Cell cycle analysis, BR7 (PDX) cells; details: 1 μM 4-OH Tam
Procedure: (§1) Cells were fixed in 70% ethanol overnight. Cells were subjected to RNaseA treatment and stained with propidium iodide (PI). Data was collected using FACScalibur and analyzed with FloJo 10.0 software. Data from 3 independent experiments are shown. SEMs are shown. **P<0.01 and ***P<0.001 by two-way ANOVA. […] TamS and TamR cells were treated with either DMSO or 1 μM 4-OH Tam and initiated on day 0. Results are representative of 3 independent experiments and presented as relative proliferation in which all samples are normalized to Day 0. Standard deviations are shown. *P<0.05 by t-test. […] Cells were treated with either DMSO or 1 μM 4-HT 24 hours after plating. Colonies scored after 10 days counting only ≥50 cells/colony. Results are representative of 3 independent experiments. SEMs are shown. ***P<0.001 by two-way ANOVA. […] Equal amounts of RNA were reverse transcribed and quantified through real-time PCR. RNA levels normalized to GAPDH using the ^−ΔΔCt method. Error bars represent SEM. […] RNA levels normalized to GAPDH using the ^−ΔΔCt method. Error bars represent SEM.
(§2) Cell Cycle Analysis: Cells were trypsinized, filtered, and counted using an automated cell counter (Bio-Rad). […] Data were collected using a FACScalibur or LSRII UV and analyzed with FlowJo 10.0.

TamR cells (MCF7 LCC9) [1] = experiment: Colony survival assay, TamR cells
Procedure: as §1
Cells were lysed in NP-40 buffer and probed for key translation factors. β-tubulin (loading control). […] Cells were treated with either DMSO or 1 μM 4-OH Tam 24 hours after plating. Dox (1 μg/mL) was administered 24 hours after plating and removed after 72 hours. Colonies scored after 10 days counting only ≥50 cells/colony. SEM is shown. […] Cells were treated with either DMSO control or 1 μM 4-OH Tam for 72 hours in 1% CS-FBS. Dox (1 μg/mL) was administered to cells for 72 hours. […] Data was collected using LSRII UV and analyzed with FloJo software. […] Data was collected using FACScalibur and analyzed with FloJo 10.0 software. […] Data was collected using FACScalibur and analyzed with FloJo 10.0 software. […] Colonies scored after 10 days counting only ≥50 cells/colony. […]
Hsp70 (loading control). […] Colonies were scored after 10 days counting only >50 cells/colony. […] Equal amounts of RNA were resolved by sucrose gradient centrifugation and ribosome profiles monitored by UV absorbance 254 nm. […]

[2] = tested on: canonical ER signaling in TamR cells; experiment: ER signaling mRNA expression (c-Myc, EEIG1) by real-time PCR, TamR cells; details: Tam for 24 hours
Procedure: as §1
(§3) Quantitative Real-Time PCR (RT-qPCR) and Analysis: RNA was extracted using Trizol as per the manufacturer's instructions. […] Fold change was calculated using the 2^−ΔΔCt method.

TamS cells (MCF7 LCC1) = experiment: Cell cycle analysis, TamS cells with or without eIF4E overexpression; details: 1 μM 4-OHT for 72 h, regardless of eIF4E overexpression
Procedure: Dox (2 μg/mL) was added 72 hours prior to lysis in NP-40 buffer. Equal protein amounts were immunoblotted as shown. β-Actin was used as a loading control. […] Dox (2 μg/mL) was added for 72 hours. Cells were subjected to exhaustive RNase A and stained with propidium iodide (PI). Flow cytometry data were collected using a FACScalibur and analyzed with FloJo software. The average of three studies is shown. […] Cells were treated with 2 μg/mL Dox for 72 hours and lysed in NP-40 buffer. Equal protein amounts were immunoblotted. β-Actin was used as a loading control. Representative results are shown. […] TamS sh-control, eIF4E-overexpressing, shTSC2, and shTSC2 and eIF4E-overexpressing cells were treated with either DMSO or 1 μM 4-OHT. (**)P<0.01; (***)P<0.0001 by two-way ANOVA. […] Results are the average of three independent studies.
Cell Cycle Analysis: Cells were trypsinized, filtered, and counted using an automated cell counter (Bio-Rad). Cells (7×10^5) were seeded on 10-cm culture plates in IMEM (Corning) with 5% FBS (Gibco) and 0.4% gentamicin sulfate (Lonza) and allowed to adhere overnight. The medium was changed to IMEM (Corning) with 1% charcoal-stripped FBS (HyClone) and 0.4% gentamicin sulfate for 48 hours. Cells were treated with the appropriate drug for 72 hours and with fresh drug after 48 hours. […] Data were collected using a FACScalibur or LSRII UV and analyzed with FlowJo 10.0.

[3] = tested on: canonical ER signaling in BR7 cells; experiment: ER signaling mRNA expression (c-Myc, EEIG1) by real-time PCR, BR7 (PDX) cells; details: Tam for 24 hours
Procedure: as §1, §3

TamR cells (MCF7 LCC9) [4] = experiment: Cell proliferation assay (MTT), TamR cells; details: 1 μM 4-OH Tam
Procedure: as §1
Endogenous eIF4E was silenced by shRNA. […]
Cell Proliferation Assay: Cell proliferation was measured using the CellTiter 96 nonradioactive cell proliferation assay kit (Promega) according to the manufacturer's instructions. […] Absorbance was measured at 570 nm. […]

TamR cells (MCF7 LCC9) [5] = experiment: Cell cycle analysis, TamR cells; details: 20 nM RAD001 plus 1 μM 4-OH Tam, 72 hours
Procedure: Cells were lysed in NP-40 buffer and probed for key translation factors. β-tubulin (loading control). […] Cells were treated with either DMSO or 1 μM 4-OH Tam 24 hours after plating. Dox (1 μg/mL) was administered 24 hours after plating and removed after 72 hours. Colonies scored after 10 days counting only ≥50 cells/colony. SEM is shown. […] Cells were treated with either DMSO control or 1 μM 4-OH Tam for 72 hours in 1% CS-FBS. Dox (1 μg/mL) was administered to cells for 72 hours. Cells were fixed in 70% ethanol overnight and subjected to RNaseA treatment. Cells were stained with Hoechst 33342. Data was collected using LSRII UV and analyzed with FloJo software. Data from 3 independent experiments are shown. SEM is shown. *P<0.05 by two-way ANOVA. […] Cap chromatography performed on TamR cells with or without 4E-BP1 cDNA overexpression. Cells were lysed in NP-40 buffer and pulldown was performed for 1 hour at 4° C. Proteins were eluted and resolved via SDS-PAGE. […] Data was collected using FACScalibur and analyzed with FloJo 10.0 software. […] Data was collected using FACScalibur and analyzed with FloJo 10.0 software. […] Colonies scored after 10 days counting only ≥50 cells/colony. […]
as §2

Row | SMILES | cell cycle distribution under tamoxifen (BR7 (PDX) cells) | survival under tamoxifen (TamR cells (MCF7 LCC9) [1]; 1 μM 4-OH Tam, 10 days) | tamoxifen-induced repression of canonical ER signaling [2] | proliferation in the presence of tamoxifen (TamS cells (MCF7 LCC1)) | tamoxifen-induced repression of canonical ER signaling [3] | proliferation under tamoxifen (TamR cells (MCF7 LCC9) [4]) | resensitization to tamoxifen: cell proliferation (TamR cells (MCF7 LCC9) [5]) | resensitization to tamoxifen: survival (TamR cells (MCF7 LCC9) [1]; 20 nM RAD001 plus 1 μM 4-OH Tam, 10 days) | cell survival on cotreatment (TamR cells (MCF7 LCC9) [1]; RAD001 added to 1 μM 4-OHT plus 10 μM CGP57380)
1 | CC/C(=C(\c1ccccc1)c1ccc(OCCN(C)C)cc1)c1ccccc1 [tamoxifen] | normal cell cycle distribution | maintain normal proliferation and survival | insensitive | unable to proliferate | insensitive | maintain normal proliferation and survival | – | – | –
2 | CO[C@H]1C[C@@H]2CC[C@@H](C)[C@@](O)(O2)C(=O)C(=O)N2CCCC[C@H]2C(=O)O[C@H]([C@H](C)C[C@@H]2CC[C@@H](OCCO)[C@H](OC)C2)CC(=O)[C@H](C)/C=C(\C)[C@@H](O)[C@@H](OC)C(=O)[C@H](C)C[C@H](C)/C=C/C=C/C=C/1C [RAD001, Everolimus] | – | – | – | – | – | – | restoration of inhibition of cell proliferation | decreased survival | further additive reduction in cell survival
